System: C. albicans
Experiment: Cell viability by membrane integrity, propidium iodide (PI) flow cytometry
Type: cell-based
Method: • Figure 1. Checkerboard assay showing the potentiation of the antifungal caspofungin by the compound MDN-0018. In this assay, dose response curves of the compound MDN-0018 (8 to 0.015 µg/mL) are performed from left to right and dose response curves of caspofungin (0.24 to 0.018 µg/mL) are performed from top to bottom. Other known antifungal compounds (echinocandins, azoles and polyenes) were tested, obtaining a similar checkboard. […] Determination of the potentiation of caspofungin activity by the compound MDN-0018 against A. fumigatus. Study of the optimum concentration of the compounds MDN-0018 and caspofungin where maximum enhancement of caspofungin is reached is shown in Figure 2.1. In addition, the graphic representation of curves, in duplicate, of the caspofungin potentiated by the compound MDN-0018 is shown in Figure 2.1. Each curve represents a curve of caspofungin from 0.24 to 0.018 µg/mL ([…]) with set concentrations of the MDN-0018 compound from 8 to 0.015 µg/mL (8.86 to 0.017 µM). • Figure 3. Flow cytometry experiments to determine cellular viability by changes in membrane permeability using propidium iodide (PI) as probe. […]
Cell viability was determined by changes in membrane permeability, live cells with intact membranes are distinguished by their ability to exclude dyes that easily penetrate dead or damaged cells. […]

CC[C@H](C)C[C@H](C)CCCCCCCCC(=O)N[C@H]1C[C@@H](O)[C@@H](NCCN)NC(=O)[C@@H]2[C@@H](O)CCN2C(=O)[C@H]([C@H](O)CCN)NC(=O)[C@H]([C@H](O)[C@@H](O)c2ccc(O)cc2)NC(=O)[C@@H]2C[C@@H](O)CN2C(=O)[C@H]([C@@H](C)O)NC1=O [caspofungin]
cellular viability by changes in membrane permeability (PI), flow cytometry profile (1 µg/mL of caspofungin): damaged population
cellular viability by changes in membrane permeability (PI), flow cytometry profile (sublethal dose of caspofungin (0.015 µg/mL)): same profile as the non treated cells

— patent publication EP2792683A1, “Compounds potentiating the activity of antifungal drugs” (Fundacion MEDINA. Centro de Excelencia en Investigacion de …, priority 2013, dated 2014)
